Reference: article PMC7071059, “Targeting Receptor Tyrosine Kinase VEGFR-2 in Hepatocellular Cancer: Rational Design, Synthesis and Biological Evaluation of 1,2-Disubstituted Benzimidazoles” (Molecules, 2020)

Tests used:
[1] = test system: MDA-MB-435; test: NCI 60 one dose (10 μM) anticancer assay; type: cell-based; conditions: Homo sapiens, 10 µM one dose, Melanoma, read-out: Growth Inhibition % MDA-MB-435
Description: (§1) Some of the synthesized compounds were selected by the NCI, Bethesda, MD, USA for evaluation of their anticancer activity. An in vitro one dose (10 μM) anticancer assay was conducted on a full NCI 60-cell line panel derived from 9 different cancer types. Table 2 presents the percent of growth inhibition of some cell lines. […] K-562 and MOLT-4 from leukemia, NCI-H522 from non-small cell lung cancer, HCT-116 from colon cancer, SK-MEL-5 and UACC-62 from melanoma, UO-31 from renal cancer, PC-3 from prostate cancer and HS 578T and T-47D from breast cancer are the most sensitive cell lines to the tested compounds. No growth inhibition was observed from the selected compounds against COLO205, HCC-2998, MALME-3M, SK-MEL-28, DU-145 and BT-549 cell lines. […] Against UO-31 from renal cancer and PC-3 from prostate cancer, it inhibited the growth of 44% and 58% of the cancer cells, respectively.

[2] = test system: UO-31; test: NCI 60 one dose (10 μM) anticancer assay; type: cell-based; conditions: Homo sapiens, 10 µM one dose, Renal Cancer, read-out: Growth Inhibition % UO-31
Description: as §1

[3] = test system: SK-MEL-5; test: NCI 60 one dose (10 μM) anticancer assay; type: cell-based; conditions: Homo sapiens, 10 µM one dose, Melanoma, read-out: Growth Inhibition % SK-MEL-5
Description: as §1

[4] = test system: T-47D; test: NCI 60 one dose (10 μM) anticancer assay; type: cell-based; conditions: Homo sapiens, T47D; 10 µM one dose; Breast Cancer; read-out: Growth Inhibition % T-47D
Description: as §1

[5] = test system: HOP-62; test: NCI 60 one dose (10 μM) anticancer assay; type: cell-based; conditions: Homo sapiens, 10 µM one dose, Non-small cell lung Cancer, read-out: Growth Inhibition % HOP-62
Description: as §1

[6] = test system: RXF 393; test: NCI 60 one dose (10 μM) anticancer assay; type: cell-based; conditions: Homo sapiens, 10 µM one dose, Renal Cancer, read-out: Growth Inhibition % RXF 393
Description: as §1

[7] = test system: NCI-H226; test: NCI 60 one dose (10 μM) anticancer assay; type: cell-based; conditions: Homo sapiens, 10 µM one dose, Non-small cell lung Cancer, read-out: Growth Inhibition % NCI-H226
Description: as §1

[8] = test system: HL-60(TB); test: NCI 60 one dose (10 μM) anticancer assay; type: cell-based; conditions: Homo sapiens, 10 µM one dose, Leukemia, read-out: Growth Inhibition % HL-60(TB)
Description: as §1

[9] = test system: HOP-92; test: NCI 60 one dose (10 μM) anticancer assay; type: cell-based; conditions: Homo sapiens, 10 µM one dose, Non-small cell lung Cancer, read-out: Growth Inhibition % HOP-92
Description: as §1

[10] = test system: A549/ATTC; test: NCI 60 one dose (10 μM) anticancer assay; type: cell-based; conditions: Homo sapiens, 10 µM one dose, Non-small cell lung Cancer, read-out: Growth Inhibition % A549/ATTC
Description: as §1

[11] = test system: NCI-H322M; test: NCI 60 one dose (10 μM) anticancer assay; type: cell-based; conditions: Homo sapiens, 10 µM one dose, Non-small cell lung Cancer, read-out: Growth Inhibition % NCI-H322M
Description: as §1

[12] = test system: OVCAR-8; test: NCI 60 one dose (10 μM) anticancer assay; type: cell-based; conditions: Homo sapiens, 10 µM one dose, Ovarian Cancer, read-out: Growth Inhibition % OVCAR-8
Description: as §1

[13] = test system: K-562; test: NCI 60 one dose (10 μM) anticancer assay; type: cell-based; conditions: Homo sapiens, K562; 10 µM one dose; Leukemia; read-out: Growth Inhibition % K-562
Description: as §1

[14] = test system: PC-3; test: NCI 60 one dose (10 μM) anticancer assay; type: cell-based; conditions: Homo sapiens, 10 µM one dose, Prostate Cancer, read-out: Growth Inhibition % PC-3
Description: as §1

[15] = test system: PRMI-8226; test: NCI 60 one dose (10 μM) anticancer assay; type: cell-based; conditions: 10 µM one dose; Leukemia; read-out: Growth Inhibition % PRMI-8226
Description: as §1

[16] = test system: OVCAR-4; test: NCI 60 one dose (10 μM) anticancer assay; type: cell-based; conditions: Homo sapiens, 10 µM one dose, Ovarian Cancer, read-out: Growth Inhibition % OVCAR-4
Description: as §1

[17] = test system: HepG2 cell line; test: In vitro cytotoxic activity, Sulfo-Rhodamine-B (SRB) assay; type: cell-based, human; conditions: Homo sapiens, HepG2, 48 h, SRB assay, 48 h; mean of three independent experiments; read-out: IC50 (μM) on HepG2 Cell Line
[18] = test system: HSF cell line; test: In vitro growth inhibitory activity on normal human skin fibroblast, SRB assay; type: cell-based; conditions: for IC50: Homo sapiens, HSF, SRB assay, 48 h, normal cell line, mean of three independent experiments
Description: The anticancer activity of the synthesized compounds was measured in vitro using the Sulfo-Rhodamine-B (SRB) assay according to Skehan et al.. Briefly, HepG2 or HSF cells (obtained from Nawah Scientific) were inoculated in 96-well microtiter plates (10^4 cells/ well) for 24 h before treatment with the tested compounds to allow attachment of cells to the walls of the plates. Test compounds were dissolved in DMSO immediately before use and diluted to the appropriate volume just before addition to the cell culture. […] Three wells were prepared for each individual dose. Monolayer cells were incubated with the compounds for 48 h at 37 °C and in an atmosphere of 5% CO2. After 48 h, cells were fixed, washed and stained for 30 min with 0.4% (w/v) SRB dissolved in 1% acetic acid. Unbound dye was removed by four washes with 1% acetic acid and attached stain was recovered with Tris-EDTA buffer. Color intensity was measured in an ELISA reader. The relation between surviving fraction and drug concentration was plotted to get the survival curve.

[19] = target: VEGFR-2 (Homo sapiens, UniProt P35968); test: Biochemical kinase assay (Kinase-Glo Plus luminescence)
VEGFR-2, sequence (P35968 20-1356): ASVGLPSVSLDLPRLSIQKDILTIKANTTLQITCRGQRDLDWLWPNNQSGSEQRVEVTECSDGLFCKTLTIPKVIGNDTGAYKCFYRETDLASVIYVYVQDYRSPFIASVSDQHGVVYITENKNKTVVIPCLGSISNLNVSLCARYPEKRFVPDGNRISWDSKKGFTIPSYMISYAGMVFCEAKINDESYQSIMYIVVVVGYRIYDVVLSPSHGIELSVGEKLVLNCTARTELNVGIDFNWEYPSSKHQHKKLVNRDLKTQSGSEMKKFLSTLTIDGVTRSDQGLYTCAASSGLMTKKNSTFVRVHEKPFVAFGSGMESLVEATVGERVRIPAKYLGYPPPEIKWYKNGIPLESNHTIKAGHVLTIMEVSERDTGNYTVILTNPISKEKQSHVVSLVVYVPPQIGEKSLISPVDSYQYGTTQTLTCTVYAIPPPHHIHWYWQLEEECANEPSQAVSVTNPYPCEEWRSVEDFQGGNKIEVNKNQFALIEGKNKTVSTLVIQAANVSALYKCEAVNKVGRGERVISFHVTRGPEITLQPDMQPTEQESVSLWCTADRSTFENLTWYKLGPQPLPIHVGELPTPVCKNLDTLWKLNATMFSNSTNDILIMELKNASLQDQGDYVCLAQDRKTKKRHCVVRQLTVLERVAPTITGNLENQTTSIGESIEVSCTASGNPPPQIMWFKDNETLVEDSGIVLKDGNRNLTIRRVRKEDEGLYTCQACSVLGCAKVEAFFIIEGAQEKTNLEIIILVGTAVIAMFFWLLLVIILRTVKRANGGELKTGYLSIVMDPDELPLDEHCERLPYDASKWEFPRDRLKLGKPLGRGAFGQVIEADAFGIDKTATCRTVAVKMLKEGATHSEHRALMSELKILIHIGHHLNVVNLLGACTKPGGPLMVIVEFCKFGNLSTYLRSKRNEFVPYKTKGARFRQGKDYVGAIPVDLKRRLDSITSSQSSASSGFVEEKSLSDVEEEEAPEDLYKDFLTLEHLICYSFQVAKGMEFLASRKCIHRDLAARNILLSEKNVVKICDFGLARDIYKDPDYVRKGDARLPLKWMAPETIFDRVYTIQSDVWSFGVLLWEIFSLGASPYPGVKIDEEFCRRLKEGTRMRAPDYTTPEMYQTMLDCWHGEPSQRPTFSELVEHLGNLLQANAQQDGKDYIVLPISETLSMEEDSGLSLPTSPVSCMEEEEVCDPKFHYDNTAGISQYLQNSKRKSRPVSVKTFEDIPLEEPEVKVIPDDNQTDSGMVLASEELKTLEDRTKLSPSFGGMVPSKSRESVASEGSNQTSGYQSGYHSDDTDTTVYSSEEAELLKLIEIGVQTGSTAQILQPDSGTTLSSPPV
Description: This assay was carried out using the VEGFR-2 kinase enzyme system or FGFR-1 kinase enzyme system and Kinase-Glo Plus luminescence kinase (Promega) kits according to the manufacturers´ protocols. This assay evaluated the activity of kinase by measuring the amount of ATP remaining in solution after a kinase reaction. The luminescent signal from the assay was related to the quantity of ATP available, which was inversely proportional to the amount of kinase activity. […] Subsequently, serial dilutions were carried out, and 5 µL of the dilution was added to a 50 µL reaction. The enzymatic reactions were performed at 30 °C for 45 minutes. The 50 µL reaction mixture contained 40 mM Tris, pH 7.4, 10 mM MgCl2, 0.1 mg/mL BSA, 1 mM DTT, 0.2 mg/ml Poly (Glu, Tyr) substrate, 10 μM ATP and protein. After the enzymatic reaction, 50 µL of Kinase-Glo Plus Luminescence kinase assay solution was added to each reaction, and the plates were incubated for 15 minutes at room temperature. The luminescence signal was measured using a Tecan–spark multimode microplate reader. The difference between luminescence intensities in the absence of Kinase (Lut) and in the presence of Kinase (Luc) was defined as 100% activity (Lut − Luc). Using a luminescence signal (Lu) in the presence of the compound, % activity was calculated as: % activity = {(Lut − Lu)/(Lut − Luc)}×100%, where Lu = the luminescence intensity in the presence of the compound.

| Structure (SMILES) | inhibition at 10 µM [1] | inhibition at 10 µM [2] | inhibition at 10 µM [3] | inhibition at 10 µM [4] | inhibition at 10 µM [5] | inhibition at 10 µM [6] | inhibition at 10 µM [7] | inhibition at 10 µM [8] | inhibition at 10 µM [9] | inhibition at 10 µM [10] | inhibition at 10 µM [11] | inhibition at 10 µM [12] | inhibition at 10 µM [13] | inhibition at 10 µM [14] | inhibition at 10 µM [16] | melting point | IC50 [17] | further results |
| --- | --- | --- | --- | --- | --- | --- | --- | --- | --- | --- | --- | --- | --- | --- | --- | --- | --- | --- |
| C/C(=N\NC(=O)Cn1c(C(C)C)nc2ccccc21)c1ccccc1 [Compound 14a, (E)-2-(2-Isopropyl-1H-benzo[d]imidazol-1-yl)-N′-(1-phenylethylidene)acetohydrazide] | < 10% | < 10% | < 10% | < 10% | < 10% | 33% | 22% | < 10% | 18% | < 10% | < 10% | < 10% | < 10% | < 10% | < 10% | 176 to 178 °C | 25.9 µM | inhibition at 10 µM [15]: < 10% |
| CC(C)c1nc2ccccc2n1CC(=O)N/N=C/c1cccc(OCc2ccccc2)c1 [Compound 17a, (E)-N′-(3-(Benzyloxy)benzylidene)-2-(2-isopropyl-1H-benzo[d]imidazol-1-yl)acetohydrazide] | < 10% | 44% | 50% | 32% | < 10% | < 10% | 29% | 32% | – | 16% | < 10% | < 10% | 57% | 58% | < 10% | – | 1.98 µM | IC50 [18]: 19.9 µM; selectivity to the HepG2 cell line over the normal HSF cell line ([18]; from IC50 HSF vs IC50 HepG2): about ten-fold higher selectivity; IC50 [19]: 0.11 ± 0.003 µM |
| Cc1ccc(-c2nc3ccccc3n2CC(=O)N/N=C/c2cccc(OCc3ccccc3)c2)o1 [Compound 17b, (E)-N′-(3-(Benzyloxy)benzylidene)-2-(2-(5-methylfuran-2-yl)-1H-benzo[d]imidazol-1-yl)acetohydrazide] | 21% | 57% | 33% | 49% | 15% | 40% | 25% | 50% | 32% | 42% | 21% | 26% | 54% | 46% | 21% | 180 to 182 °C | 10 µM | IC50 [18]: 4.8 µM; inhibition at 10 µM [15]: 50%; IC50 [19]: 0.14 ± 0.004 µM |
| CC(C)c1nc2ccccc2n1CC(=O)N/N=C/c1ccc(OCc2ccccc2)cc1 [Compound 17c, (E)-N′-(4-(Benzyloxy)benzylidene)-2-(2-isopropyl-1H-benzo[d]imidazol-1-yl)acetohydrazide] | < 10% | 28% | < 10% | 24% | < 10% | < 10% | < 10% | < 10% | < 10% | < 10% | < 10% | < 10% | 28% | 17% | – | 209 to 211 °C | 20.2 µM | – |
| Cc1ccc(-c2nc3ccccc3n2CC(=O)N/N=C/c2ccc(OCc3ccccc3)cc2)o1 [Compound 17d, (E)-N′-(4-(Benzyloxy)benzylidene)-2-(2-(5-methylfuran-2-yl)-1H-benzo[d]imidazol-1-yl)acetohydrazide] | < 10% | 30% | 15% | 31% | 17% | < 10% | < 10% | 19% | – | 23% | 20% | 20% | 41% | 29% | < 10% | 201 to 203 °C | 15.6 µM | – |
| COc1cc(/C=N/NC(=O)Cn2c(C(C)C)nc3ccccc32)ccc1OCc1ccccc1 [Compound 17e, (E)-N′-(4-(Benzyloxy)-3-methoxybenzylidene)-2-(2-isopropyl-1H-benzo[d]imidazol-1-yl)acetohydrazide] | < 10% | 20% | 17% | 27% | < 10% | < 10% | < 10% | < 10% | < 10% | < 10% | < 10% | < 10% | 25% | 20% | < 10% | 180 to 182 °C | 24.1 µM | – |
| COc1cc(/C=N/NC(=O)Cn2c(-c3ccc(C)o3)nc3ccccc32)ccc1OCc1ccccc1 [Compound 17f, (E)-N′-(4-(Benzyloxy)-3-methoxybenzylidene)-2-(2-(5-methylfuran-2-yl)-1H-benzo[d]imidazol-1-yl)acetohydrazide] | < 10% | 38% | 23% | 31% | < 10% | < 10% | 16% | < 10% | – | 27% | < 10% | 19% | 34% | 37% | < 10% | 139 to 141 °C | 42.5 µM | – |
